Reference: patent US7541020B2, “Aminoalkyl glucosaminide phosphate compounds and their use as adjuvants and immunoeffectors” (priority 1997, dated 2009)
Read-outs that look alike come from different tables or passages of the source.

How the values were obtained:
ovalbumin = assay: Stimulation of antiovalbumin antibody production; type: in vivo, BDF1 female mice; conditions: 50 μg AGP + 50 μg ovalbumin; second immunization day 21; bled 14 days after second injection
Procedure: BDF1 female mice (8 per group) were immunized with 0.2 ml of emulsions containing 50 μg of the AGPs +50 μg of ovalbumin. A second immunization was administered 21 days post primary. Each mouse was bled 14 days after the second injection.

[1] = Fever response in rabbits (pyrogenicity); type: in vivo; conditions: for PYROGENICITY Total Rise ° C., 3 rabbits: 10 ug/kg, cumulative rise ≥1.5 degree in three rabbits is considered pyrogenic; for PY[…]: rabbits
Procedure: The AGP compounds were also evaluated for their tendency to induce a fever response in rabbits. Each compound was formulated in 10% (v/v) ethanol/water solution at 100 mg/ml, then diluted with D5W to the desired concentration. The material was injected at 3 ml/kg body weight into 3 rabbits. The rise in core temperature of the rabbits was recorded.

E.G7 (OVA) cells = conditions: s.c. 25 μg OVA in AGP preparation, spleen cells 21 days later
influenza A/HK/68 [2] = type: in vivo, BALB/c mice
influenza A/HK/68 [3] = test system: influenza A/HK/68; set-up: species or system ICR mice; conditions: mouse, in vivo
influenza A/HK/68 [4] = type: in vivo, ICR mice; conditions: mouse, in vivo
TNF-α = assay: Cytokine induction in human whole blood ex vivo culture: TNF-α (ELISA); type: cell-based; conditions: 4 hr
Procedure: (§1) AGP compounds were solubilized in 10% EtOH-water and diluted to various concentrations. Fifty μl of each dilution were added to 450 μl of whole human blood. Controls were treated with culture media (RPMI). The reaction mixture was incubated at 37° C. for 4 hr with constant mixing on a rotator. Sterile PBS (1.5 ml) was added to the reaction mixture, the cells were centrifuged and the supernatents removed for cytokine testing. The concentration of TNF-α and IL-1β in each supernatent was determined using immunoassay ELISA kits from R&D Systems.

IL-1β = assay: Cytokine induction in human whole blood ex vivo culture: IL-1β (ELISA); type: cell-based; conditions: 4 hr
Procedure: as §1

tetanus toxoid = conditions: mouse, in vivo, sc
[5] = 25 μg AGP + 1 HAU FI-Flu in 2% Squalene, SQ once, bled 14 days after vaccination

## 3-Hydroxy-(R)-2-[(R)-3-tetradecanoyloxytetradecanoylamino]propyl 2-Deoxy-4-O-phosphono-2-[(R)-3-tetradecanoyloxytetradecanoylamino]-3-O-[(R)-3-tetradecanoyloxytetradecanoyl]-β-D-glucopyranoside Triethylammonium Salt [B2]
ovalbumin
  Anti-ovalbumin IgG1 T/C: 5.0
  Anti-ovalbumin IgG1 Titer: 8300
  Anti-ovalbumin IgG2a T/C: 2.5
  Anti-ovalbumin IgG2a Titer: 825
  Anti-ovalbumin IgG2b T/C: 2.3
  Anti-ovalbumin IgG2b Titer: 550
  Anti-ovalbumin IgM T/C: 0.9
  Anti-ovalbumin IgM Titer: 175
  Anti-ovalbumin Total Ig T/C: 2.5
  Anti-ovalbumin Total Ig Titer: 563
[1]
  PYROGENICITY Total Rise ° C., 3 rabbits: 3.6 °C
  PY[…]: 2.5 to 5 µg/kg
E.G7 (OVA) cells; E:T 12.5:1
  % Cytotoxicity: 6%
E.G7 (OVA) cells; E:T 25:1
  % Cytotoxicity: 12%
E.G7 (OVA) cells; E:T 50:1
  % Cytotoxicity: 21%

## 3-Hydroxy-(S)-2-[(R)-3-decanoyloxytetradecanoylamino]propyl 2-Deoxy-6-O-phosphono-2-[(R)-3-decanoyloxytetradecanoylamino]-3-O-[(R)-3-decanoyloxytetradecanoyl]-β-D-glucopyranoside Triethylammonium Salt [B6]
Influenza A/HK/68 [2]; mouse, in vivo
  Anti-influenza Titer^−1 IgG1: 800
  Anti-influenza Titer^−1 IgG2a: 400
  Anti-influenza Titer^−1 IgG2b: 1600
  Anti-influenza Titer^−1 Total IgG: 800
  Percent Survival: 75%
Influenza A/HK/68 [3]
  IgG Titer-1 post 1°: 1600
  IgG Titer-1 post 2°: 102,400
  Percent Survival post 1°: 80%
  Percent Survival post 2°: 70%
E.G7 (OVA) cells; E:T 12.5:1
  % Cytotoxicity: 37%
E.G7 (OVA) cells; E:T 25:1
  % Cytotoxicity: 41%
E.G7 (OVA) cells; E:T 50:1
  % Cytotoxicity: 54%

## 3-Hydroxy-(S)-2-[(R)-3-tetradecanoyloxytetradecanoylamino]propyl 2-Deoxy-4-O-phosphono-2-[(R)-3-tetradecanoyloxytetradecanoylamino]-3-O-[(R)-3-tetradecanoyloxytetradecanoyl]-β-D-glucopyranoside Triethylammonium Salt [B1]
ovalbumin
  Anti-ovalbumin IgG1 T/C: 0.5
  Anti-ovalbumin IgG1 Titer: 763
  Anti-ovalbumin IgG2a T/C: 0.2
  Anti-ovalbumin IgG2a Titer: 56
  Anti-ovalbumin IgG2b T/C: 0.8
  Anti-ovalbumin IgG2b Titer: 188
  Anti-ovalbumin IgM T/C: 0.8
  Anti-ovalbumin IgM Titer: 150
  Anti-ovalbumin Total Ig T/C: 0.5
  Anti-ovalbumin Total Ig Titer: 119
Influenza A/HK/68 [4]
  Percent Survival: 40%
  Titer−1 IgG1: 6400
  Titer−1 IgG2a: 1600
  Titer−1 IgG2b: 15600
  Titer−1 Total IgG: 12,800
[1]
  PYROGENICITY Total Rise ° C., 3 rabbits: 0.1 °C
E.G7 (OVA) cells; E:T 12.5:1
  % Cytotoxicity: 15%
E.G7 (OVA) cells; E:T 25:1
  % Cytotoxicity: 24%
E.G7 (OVA) cells; E:T 50:1
  % Cytotoxicity: 34%

## CCCCCCCCCCCCCC(=O)OC(CCCCCCCCCCC)CC(=O)NC(COC1OC(CO)C(OP(=O)(O)O)C(OC(=O)CC(CCCCCCCCCCC)OC(=O)CCCCCCCCCCCCC)C1NC(=O)CC(CCCCCCCCCCC)OC(=O)CCCCCCCCCCCCC)C(N)=O.CCN(CC)CC [B24, N-[(R)-3-Tetradecanoyloxytetradecanoyl]-O-phosphono-2-[(R)-3-tetradecanoyloxytetradecanoylamino]-3-O-[(R)-3-tetradecanoyloxytetradecanoyl]β-D-glucopyranosyl]-L-serinamide Triethylammonium Salt]
[1]
  PYROGENICITY Total Rise ° C., 3 rabbits: 2.4 °C
  PY[…]: 2.5 to 5 µg/kg

## CCCCCCCCCCCCCC(=O)O[C@H](CCCCCCCCCCC)CC(=O)N[C@H]1[C@H](OC[C@H](NC(=O)C[C@@H](CCCCCCCCCCC)OC(=O)CCCCCCCCCCCCC)C(=O)OC)O[C@H](CO)[C@@H](OP(=O)(O)O)[C@@H]1OC(=O)C[C@@H](CCCCCCCCCCC)OC(=O)CCCCCCCCCCCCC.CCN(CC)CC [B26, N-[(R)-3-Tetradecanoyloxytetradecanoyl]-O-[2-deoxy-4-O-phosphono-2-[(R)-3-tetradecanoyloxytetradecanoylamino]-3-O-[(R)-3-tetradecanoyloxytetradecanoyl]-β-D-glucopyranosyl]-1-serine Methyl Ester Triethylammoniun Salt]
TNF-α; Dosage 1 μg, 37° C., Table 14
  TNF-α: 38.85 pg/mL
TNF-α; Dosage 5 μg, 37° C., Table 14
  TNF-α: 75.62 pg/mL
TNF-α; Dosage 10 μg, 37° C., Table 14
  TNF-α: 254.94 pg/mL
TNF-α; Dosage 20 μg, 37° C., Table 14
  TNF-α: 498.90 pg/mL
IL-1β; Dosage 1 μg, 37° C., Table 14
  IL-1β: 3.90 pg/mL
IL-1β; Dosage 5 μg, 37° C., Table 14
  IL-1β: 9.89 pg/mL
IL-1β; Dosage 10 μg, 37° C., Table 14
  IL-1β: 25.34 pg/mL
IL-1β; Dosage 20 μg, 37° C., Table 14
  IL-1β: 33.25 pg/mL
[1]
  PYROGENICITY Total Rise ° C., 3 rabbits: 1.7 °C
  PY[…]: 5 µg/kg
Tetanus toxoid
  Anti-tetanus toxoid IgG1 T/C: 16.9
  Anti-tetanus toxoid IgG1 Titer: 25,200
  Anti-tetanus toxoid IgG2a T/C: 29.3
  Anti-tetanus toxoid IgG2a Titer: 440
  Anti-tetanus toxoid IgG2b T/C: 42.6
  Anti-tetanus toxoid IgG2b Titer: 2,260
  Anti-tetanus toxoid IgM T/C: 1.1
  Anti-tetanus toxoid IgM Titer: 600
  Anti-tetanus toxoid Total Ig T/C: 10.5
  Anti-tetanus toxoid Total Ig Titer: 2,490
E.G7 (OVA) cells; E:T 12.5:1
  % Cytotoxicity: 4%
E.G7 (OVA) cells; E:T 25:1
  % Cytotoxicity: 8%
E.G7 (OVA) cells; E:T 50:1
  % Cytotoxicity: 14%

## CCCCCCCCCCC[C@H](CC(=O)N[C@H]1[C@H](OCCCN(CC(=O)O)C(=O)C[C@@H](CCCCCCCCCCC)OC(=O)CCCCCCCCC)O[C@H](CO)[C@@H](OP(=O)(O)O)[C@@H]1OC(=O)C[C@@H](CCCCCCCCCCC)OC(=O)CCCCCCCCC)OC(=O)CCCCCCCCC.CCN(CC)CC [B28]
Influenza A/HK/68 [2]; 25 μg AGP + 1 HAU FI-Flu in 2% Squalene, SQ once, […], mortality 21 days
  Percent Survival: 50%
Influenza A/HK/68 [2]; [5]
  Anti-influenza Titer^−1 IgG1: 400
  Anti-influenza Titer^−1 IgG2a: 400
  Anti-influenza Titer^−1 IgG2b: 100
  Anti-influenza Titer^−1 Total IgG: 800
TNF-α; Dosage 1000 ng/ml, Table 19
  TNF-α: 139 pg/mL
TNF-α; Dosage 5000 ng/ml, Table 19
  TNF-α: 197 pg/mL
TNF-α; Dosage 10,000 ng/ml, Table 19
  TNF-α: 198 pg/mL
IL-1β; Dosage 1000 ng/ml, Table 19
  IL-1β: 8 pg/mL
IL-1β; Dosage 5000 ng/ml, Table 19
  IL-1β: 13 pg/mL
IL-1β; Dosage 10,000 ng/ml, Table 19
  IL-1β: 13 pg/mL
Tetanus toxoid
  Anti-tetanus toxoid IgG1 T/C: 92.5
  Anti-tetanus toxoid IgG1 Titer: 137,600
  Anti-tetanus toxoid IgG2a T/C: 664.7
  Anti-tetanus toxoid IgG2a Titer: 9,970
  Anti-tetanus toxoid IgG2b T/C: 519.2
  Anti-tetanus toxoid IgG2b Titer: 27,520
  Anti-tetanus toxoid IgM T/C: 3.7
  Anti-tetanus toxoid IgM Titer: 2,080
  Anti-tetanus toxoid Total Ig T/C: 228.6
  Anti-tetanus toxoid Total Ig Titer: 54,500
E.G7 (OVA) cells; E:T 12.5:1
  % Cytotoxicity: 9%
E.G7 (OVA) cells; E:T 25:1
  % Cytotoxicity: 15%
E.G7 (OVA) cells; E:T 50:1
  % Cytotoxicity: 28%

## N-[(R)-3-Hexanoyloxytetradecanoyl]-O-[2-deoxy-4-O-phosphono-2-[(R)-3-hexanoyloxytetradecanoylamino]-3-O-[(R)-3-hexanoyloxytetradecanoyl]-α-d-glucopyranosyl]-l-serinamide Triethylammonium Salt [B29]
[1]
  PYROGENICITY Total Rise ° C., 3 rabbits: 0.7 °C
E.G7 (OVA) cells; E:T 12.5:1
  % Cytotoxicity: 5%
E.G7 (OVA) cells; E:T 25:1
  % Cytotoxicity: 9%
E.G7 (OVA) cells; E:T 50:1
  % Cytotoxicity: 16%

## N-[(R)-3-Octanoyloxytetradecanoyl]-O-[2-deoxy-4-O-phosphono-2-[(R)-3-octanoyloxytetradecanoylamino]-3-O-[(R)-3-octanoyloxytetradecanoyl]-β-D-glucopyranosyl]-L-serine Triethylammonium Salt [B17]
Influenza A/HK/68 [4]
  Percent Survival: 40%
  Titer^−1 IgG1: 3200
  Titer^−1 IgG2a: 3200
  Titer^−1 IgG2b: 1600
  Titer^−1 Total IgG: 6400
TNF-α; Dosage 1000 ng/ml, Table 19
  TNF-α: 2.6 pg/mL
TNF-α; Dosage 5000 ng/ml, Table 19
  TNF-α: 2.2 pg/mL
TNF-α; Dosage 10,000 ng/ml, Table 19
  TNF-α: 2.8 pg/mL
IL-1β; Dosage 1000 ng/ml, Table 19
  IL-1β: 0.2 pg/mL
IL-1β; Dosage 5000 ng/ml, Table 19
  IL-1β: 0 pg/mL
IL-1β; Dosage 10,000 ng/ml, Table 19
  IL-1β: 0 pg/mL
[1]
  PYROGENICITY Total Rise ° C., 3 rabbits: 3.4 °C
E.G7 (OVA) cells; E:T 12.5:1
  % Cytotoxicity: 15%
E.G7 (OVA) cells; E:T 25:1
  % Cytotoxicity: 26%
E.G7 (OVA) cells; E:T 50:1
  % Cytotoxicity: 39%
